Data reported in patent US20070249670A1, “Glycogen Phosphorylase Inhibitor Compounds and Pharmaceutical Compositions Thereof” (SMITHKLINE BEECHAM CORPORATION, priority 2004, published 2007).
Where a name gives a salt, the structure may show the parent alone.

Target: T1, human liver glycogen phosphorylase a (HLGPa) (Homo sapiens, UniProt P06737)
T1 construct: creating a full-length cDNA fused at the 5′ end to codons for methionine-glycine-alanine-histidine; 6xHis tag (leader Met-Gly-Ala-His6-Gly-Gly) (N); made in house; host or cells: E. coli (bacterial expression plasmid pTXK1007LTev)
T1 sequence (P06737 2-847 limits assumed): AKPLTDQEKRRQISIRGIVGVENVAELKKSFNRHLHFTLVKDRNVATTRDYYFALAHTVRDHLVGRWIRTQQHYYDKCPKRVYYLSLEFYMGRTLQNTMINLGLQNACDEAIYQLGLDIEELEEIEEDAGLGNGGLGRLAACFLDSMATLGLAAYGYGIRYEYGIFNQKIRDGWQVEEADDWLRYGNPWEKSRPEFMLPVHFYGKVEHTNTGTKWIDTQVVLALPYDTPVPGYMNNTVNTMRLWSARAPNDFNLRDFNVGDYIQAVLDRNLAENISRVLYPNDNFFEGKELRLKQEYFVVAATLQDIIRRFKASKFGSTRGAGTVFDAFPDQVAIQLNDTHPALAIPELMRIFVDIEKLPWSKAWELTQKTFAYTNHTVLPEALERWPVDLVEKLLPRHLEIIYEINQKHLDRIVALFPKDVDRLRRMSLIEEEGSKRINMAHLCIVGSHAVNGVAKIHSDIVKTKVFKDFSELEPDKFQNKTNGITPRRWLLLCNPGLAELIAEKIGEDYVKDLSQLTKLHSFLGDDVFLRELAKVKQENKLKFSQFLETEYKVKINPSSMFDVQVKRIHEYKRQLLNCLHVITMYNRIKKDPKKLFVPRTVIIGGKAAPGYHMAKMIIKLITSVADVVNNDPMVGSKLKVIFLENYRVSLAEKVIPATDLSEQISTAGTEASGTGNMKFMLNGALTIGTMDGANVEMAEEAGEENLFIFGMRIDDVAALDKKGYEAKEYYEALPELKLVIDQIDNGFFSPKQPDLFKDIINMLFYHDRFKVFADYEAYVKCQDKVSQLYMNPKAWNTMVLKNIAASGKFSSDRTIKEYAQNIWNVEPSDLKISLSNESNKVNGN
Test: Human liver glycogen phosphorylase a enzymatic activity assay (coupled, fluorescent resorufin readout, with and without 10 mM glucose)
Format: biochemical

[1] = human liver glycogen phosphorylase a, table does not say whether with or without 10 mM glucose
[2] = human liver glycogen phosphorylase a enzymatic activity assay

| SMILES | IC50 [1] | IC50 [2] |
| --- | --- | --- |
| Cc1cc(C)c(NC(=O)Nc2cc(Cl)cnc2C(=O)NC2(C(=O)O)CCCCCC2)c(C)c1 [Example 319, 1-({[5-chloro-3-({[(2,4,6-trimethylphenyl)amino]carbonyl}amino)-2-pyridinyl]carbonyl}amino)cycloheptanecarboxylic acid] | 470 nM |  |
| CCCOc1cc(C)c(NC(=O)Nc2cc3ccccc3cc2C(=O)N[C@H](C(=O)O)C2CCCCC2)c(C)c1 [Example 473, (2S)-cyclohexyl[({3-[({[2,6-dimethyl-4-(propyloxy)phenyl]amino}carbonyl)amino]-2-naphthalenyl}carbonyl)amino]ethanoic acid] |  | 1 nM |
| CSCC[C@H](NC(=O)c1cc2ccccc2cc1NC(=O)Nc1c(C)cccc1Cl)C(=O)O [Example 60, N-[3-({[(2-chloro-6-methylphenyl)amino]carbonyl}amino)-2-naphthoyl]-L-methionine] |  | 640 nM |
| Cc1cc(C)c(NC(=O)Nc2cc3ccccc3cc2C(=O)Nc2cccc(C(=O)O)c2)c(C)c1 [Example 495, 3-({[3-({[(2,4,6-trimethylphenyl)amino]carbonyl}amino)-2-naphthalenyl]carbonyl}amino)benzoic acid] |  | 300 nM |
| Cc1cc(CC2CC2)cc(C)c1NC(=O)Nc1cc(-c2cccc(F)c2)ccc1C(=O)N[C@H](C(=O)O)[C@@H](C)OC(C)(C)C [Example 505, N-({3-[({[4-(cyclopropylmethyl)-2,6-dimethylphenyl]amino}carbonyl)amino]-3′-fluoro-4-biphenylyl}carbonyl)-O-(1,1-dimethylethyl)-L-threonine] |  | 3 nM |
| Cc1cccc(C)c1NC(=O)Nc1sc2ccccc2c1C(=O)N[C@H](C(=O)O)C1CCCCC1 [Example 4, (2S)-cyclohexyl({[2-({[(2,6-dimethylphenyl)amino]carbonyl}amino)-1-benzothien-3-yl]carbonyl}amino)acetic acid] |  | 730 nM |
| Cc1cccc(C)c1NC(=O)Nc1cc(-c2cccnc2)ccc1C(=O)N[C@H](C(=O)O)C1CCCCC1 [Example 181, (2S)-Cyclohexyl({[2-({[(2,6-dimethylphenyl)amino]carbonyl}amino)-4-(3-pyridinyl)phenyl]carbonyl}amino)ethanoic acid] |  | 99 nM |
| O=C(O)CCN(Cc1ccccc1)C(=O)c1cc2ccccc2cc1NC(=O)Nc1c(Cl)cccc1Cl [Example 331, N-{[3-({[(2,6-dichlorophenyl)amino]carbonyl}amino)-2-naphthalenyl]carbonyl}-N-(phenylmethyl)-beta-alanine] | 2180 nM |  |
| O=C(Nc1c(Cl)cc(Cl)cc1Cl)Nc1c(C(=O)N[C@H](C(=O)O)C2CCCCC2)oc2cc(Br)ccc12 [Example 326, (2S)-({[6-Bromo-3-({[(2,4,6-trichlorophenyl)amino]carbonyl}amino)-1-benzofuran-2-yl]carbonyl}amino)(cyclohexyl)ethanoic acid] | 7390 nM |  |
| O=C(Cc1c(Cl)cc(C(F)(F)F)cc1Cl)Nc1cc2ccccc2cc1C(=O)N[C@H](C(=O)O)C1CCCCC1 [Example 161, (2S)-cyclohexyl{[3-({[2,6-dichloro-4-(trifluoromethyl)phenyl]acetyl}amino)-2-naphthoyl]amino}ethanoic acid] |  | 110 nM |
| O=C(Nc1cc(Cl)ccc1C(=O)O)Nc1c(Cl)cccc1Cl [Example 165, 4-Chloro-2-({[(2,6-dichlorophenyl)amino]carbonyl}amino)benzoic acid] |  | 15100 nM |
| Cc1cc(C)c(NC(=O)Nc2cc(-c3ccc(CN(C)C)cc3)ccc2C(=O)N[C@H](C(=O)O)C2CCCCC2)c(C)c1 [Example 213, (2S)-Cyclohexyl({[4′-[(dimethylamino)methyl]-3-({[(2,4,6-trimethylphenyl)amino]carbonyl}amino)-4-biphenylyl]carbonyl}amino)ethanoic acid] | 24 nM |  |
| COc1ccc(-c2cc(NC(=O)Nc3c(Cl)cccc3Cl)c(C(=O)N[C@H](C(=O)O)C3CCCCC3)s2)cc1 [Example 409, (2S)-cyclohexyl[({3-({[(2,6-dichlorophenyl)amino]carbonyl}amino)-5-[4-(methyloxy)phenyl]-2-thienyl}carbonyl)amino]ethanoic acid] |  | 93 nM |
| COc1ccc(-c2nc(NC(=O)Nc3c(Cl)cc(Cl)cc3Cl)c(C(=O)N[C@H](C(=O)O)C3CCCCC3)s2)cc1 [Example 484, (2S)-Cyclohexyl({[2-[4-(methyloxy)phenyl]-4-({[(2,4,6-trichlorophenyl)amino]carbonyl}amino)-1,3-thiazol-5-yl]carbonyl}amino)ethanoic acid] |  | 5000 nM |
| Cc1cccc(Cl)c1NC(=O)Nc1cc2ccccc2cc1C(=O)N[C@@H](Cc1c[nH]c2ccccc12)C(=O)O [Example 65, N-[3-({[(2-chloro-6-methylphenyl)amino]carbonyl}amino)-2-naphthoyl]-L-tryptophan trifluoroacetate] |  | 270 nM |
| Cc1ccccc1NC(=O)Nc1cc2ccccc2cc1C(=O)N[C@@H](CC1CCCCC1)C(=O)O [Example 144, 3-cyclohexyl-N-{[3-({[(2-methylphenyl)amino]carbonyl}amino)-2-naphthalenyl]carbonyl}-L-alanine] |  | 16800 nM |
| Cc1cc(C)c(NC(=O)Nc2cc(-c3ccc(F)c(F)c3)ccc2C(=O)N[C@@H](CCC(=O)O)C(=O)O)c(C)c1 [Example 379, N-{[3′,4′-difluoro-3-({[(2,4,6-trimethylphenyl)amino]carbonyl}amino)-4-biphenylyl]carbonyl}-L-glutamic acid] | 84 nM |  |
| O=C(Nc1cc2ccccc2nc1C(=O)N[C@H](C(=O)O)C1CCCCC1)Nc1c(Cl)cc(Cl)cc1Cl [Example 299, (2S)-Cyclohexyl({[3-({[(2,4,6-trichlorophenyl)amino]carbonyl}amino)-2-quinolinyl]carbonyl}amino)ethanoic acid] | 480 nM |  |
| Cc1cccc(C)c1NC(=O)Nc1cc2ccccc2cc1C(=O)N[C@@H](CCCNC(=N)N)C(=O)O [Example 52, N-[3-({[(2,6-dimethylphenyl)amino]carbonyl}amino)-2-naphthoyl]-L-arginine] |  | 4640 nM |
| O=C(Nc1ccccc1Cl)Nc1cc2ccccc2cc1C(=O)N[C@@H](Cc1c[nH]c2ccccc12)C(=O)O [Example 58, N-[3-({[(2-chlorophenyl)amino]carbonyl}amino)-2-naphthoyl]-L-tryptophan trifluoroacetate] |  | 4700 nM |
| COc1ccc(-c2cc(C(=O)O)c(NC(=O)Nc3c(C)cc(C)cc3C)s2)cc1 [Example 424, 5-[4-(methyloxy)phenyl]-2-({[(2,4,6-trimethylphenyl)amino]carbonyl}amino)-3-thiophenecarboxylic acid] |  | 290 nM |
| Cc1cccc(Cl)c1NC(=O)Nc1cc2ccccc2cc1C(=O)NC(C(=O)O)C1CCCNC1 (stereo not shown) [Example 5, {[3-({[(2-chloro-6-methylphenyl)amino]carbonyl}amino)-2-naphthoyl]amino}(piperidin-3-yl)acetic acid trifluoroacetate] |  | 20900 nM |
| N#Cc1ccc(-c2cc(NC(=O)Nc3c(Cl)cccc3Cl)c(C(=O)N[C@H](C(=O)O)C3CCCCC3)s2)cc1 [Example 407, (2S)-({[5-(4-cyanophenyl)-3-({[(2,6-dichlorophenyl)amino]carbonyl}amino)-2-thienyl]carbonyl}amino)(cyclohexyl)ethanoic acid] |  | 370 nM |
| Cc1cccc(Cl)c1NC(=O)Nc1cc2ccccc2cc1C(=O)N[C@@H](Cc1ccc(Br)cc1)C(=O)O [Example 91, 4-bromo-N-[3-({[(2-chloro-6-methylphenyl)amino]carbonyl}amino)-2-naphthoyl]-L-phenylalanine] |  | 7880 nM |
| O=C(Nc1sc(-c2ccc(OC(F)(F)F)cc2)cc1C(=O)O)Nc1c(Cl)cc(OC(F)(F)F)cc1Cl [Example 428, 2-{[({2,6-dichloro-4-[(trifluoromethyl)oxy]phenyl}amino)carbonyl]amino}-5-{4-[(trifluoromethyl)oxy]phenyl}-3-thiophenecarboxylic acid] |  | 1220 nM |
| O=C(Nc1sc(-c2ccccc2)cc1C(=O)O)Nc1c(Cl)cc(Cl)cc1Cl [Example 391, 5-phenyl-2-({[(2,4,6-trichlorophenyl)amino]carbonyl}amino)-3-thiophenecarboxylic acid] | 6780 nM |  |
| COc1ccc(-c2cc(NC(=O)Nc3c(Cl)cccc3Cl)c(C(=O)O)s2)cc1 [Example 408, 3-({[(2,6-dichlorophenyl)amino]carbonyl}amino)-5-[4-(methyloxy)phenyl]-2-thiophenecarboxylic acid] |  | 1150 nM |
| Cc1cc(C)c(NC(=O)Nc2cc3ccccc3cc2C(=O)N2CCCC[C@H]2C(=O)O)c(C)c1 [Example 257, (2S)-1-{[3-({[(2,4,6-trimethylphenyl)amino]carbonyl}amino)-2-naphthalenyl]carbonyl}-2-piperidinecarboxylic acid] | 18400 nM |  |
